# Columns and labels:
# Format in all cases: cell-based
# D(1A) dopamine receptor [1] = target: T1, D(1A) dopamine receptor (Homo sapiens, UniProt P21728); assay: Displacement of [3H]SCH23390 from dopamine D1 receptor expressed in HEK293 cells at 10 uM after 50 mins by beta liquid scintillation counter
# D(2) dopamine receptor [2] = target: T2, D(2) dopamine receptor (Homo sapiens, UniProt P14416); assay: Displacement of [3H]spiperone from dopamine D2 receptor expressed in HEK293 cells after 50 mins by beta liquid scintillation counter
# [3] = target: T3, 5-hydroxytryptamine receptor 1A (Homo sapiens, UniProt P08908); assay: Displacement of [3H]-8-OH-DPAT from 5-HT1A receptor expressed in CHO cells after 50 mins by beta liquid scintillation counter
# T3 sequence (P08908 whole entry): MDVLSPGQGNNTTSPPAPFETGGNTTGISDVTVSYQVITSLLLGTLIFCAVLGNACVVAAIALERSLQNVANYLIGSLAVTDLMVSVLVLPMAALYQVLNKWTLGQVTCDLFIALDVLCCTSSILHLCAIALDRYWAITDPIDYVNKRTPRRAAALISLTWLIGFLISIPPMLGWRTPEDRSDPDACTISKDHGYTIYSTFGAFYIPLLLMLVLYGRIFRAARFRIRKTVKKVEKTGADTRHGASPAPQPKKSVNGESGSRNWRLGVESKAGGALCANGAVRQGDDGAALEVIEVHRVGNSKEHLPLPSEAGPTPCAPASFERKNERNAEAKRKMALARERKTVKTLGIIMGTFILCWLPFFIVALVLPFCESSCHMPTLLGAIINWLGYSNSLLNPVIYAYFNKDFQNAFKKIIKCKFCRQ
# [4] = target: T4, 5-hydroxytryptamine receptor 2A (Homo sapiens, UniProt P28223); assay: Displacement of [3H]ketanserin from 5-HT2A receptor expressed in CHO cells at 10 uM after 50 mins by beta liquid scintillation counter
# D(2) dopamine receptor [5] = target: T2, D(2) dopamine receptor; assay: Displacement of [3H]spiperone from dopamine D2 receptor expressed in HEK293 cells at 10 uM after 50 mins by beta liquid scintillation counter
# D(1A) dopamine receptor [6] = target: T1, D(1A) dopamine receptor; assay: Displacement of [3H]SCH23390 from dopamine D1 receptor expressed in HEK293 cells after 50 mins by beta liquid scintillation counter
# [7] = target: T4, 5-hydroxytryptamine receptor 2A; assay: Displacement of [3H]ketanserin from 5-HT2A receptor expressed in CHO cells after 50 mins by beta liquid scintillation counter
# T4 sequence (P28223 whole entry): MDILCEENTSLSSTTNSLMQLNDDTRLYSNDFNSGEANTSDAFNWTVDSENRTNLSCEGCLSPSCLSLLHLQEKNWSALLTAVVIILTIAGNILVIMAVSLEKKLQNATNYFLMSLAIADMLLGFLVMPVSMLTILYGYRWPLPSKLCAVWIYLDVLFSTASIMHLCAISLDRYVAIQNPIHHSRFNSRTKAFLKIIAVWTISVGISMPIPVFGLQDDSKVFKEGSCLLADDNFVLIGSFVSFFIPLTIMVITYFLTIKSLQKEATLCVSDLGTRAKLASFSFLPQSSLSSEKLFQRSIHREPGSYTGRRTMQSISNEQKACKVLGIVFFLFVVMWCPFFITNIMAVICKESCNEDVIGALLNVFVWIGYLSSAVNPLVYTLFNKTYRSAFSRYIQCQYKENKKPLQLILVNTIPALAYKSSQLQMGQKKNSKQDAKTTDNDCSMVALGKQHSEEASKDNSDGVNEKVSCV
# T1 sequence (P21728 whole entry): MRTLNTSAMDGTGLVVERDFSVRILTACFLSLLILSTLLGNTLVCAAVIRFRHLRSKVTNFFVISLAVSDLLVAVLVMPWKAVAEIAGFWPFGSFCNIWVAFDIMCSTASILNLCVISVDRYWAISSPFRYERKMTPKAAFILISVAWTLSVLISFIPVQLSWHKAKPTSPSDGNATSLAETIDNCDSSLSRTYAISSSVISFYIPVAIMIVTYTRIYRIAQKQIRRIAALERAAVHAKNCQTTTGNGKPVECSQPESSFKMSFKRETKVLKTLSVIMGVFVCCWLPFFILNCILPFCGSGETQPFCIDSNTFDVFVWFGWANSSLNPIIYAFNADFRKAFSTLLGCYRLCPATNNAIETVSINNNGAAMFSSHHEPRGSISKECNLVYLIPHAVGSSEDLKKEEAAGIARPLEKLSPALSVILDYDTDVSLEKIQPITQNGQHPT
# T2 sequence (P14416 whole entry): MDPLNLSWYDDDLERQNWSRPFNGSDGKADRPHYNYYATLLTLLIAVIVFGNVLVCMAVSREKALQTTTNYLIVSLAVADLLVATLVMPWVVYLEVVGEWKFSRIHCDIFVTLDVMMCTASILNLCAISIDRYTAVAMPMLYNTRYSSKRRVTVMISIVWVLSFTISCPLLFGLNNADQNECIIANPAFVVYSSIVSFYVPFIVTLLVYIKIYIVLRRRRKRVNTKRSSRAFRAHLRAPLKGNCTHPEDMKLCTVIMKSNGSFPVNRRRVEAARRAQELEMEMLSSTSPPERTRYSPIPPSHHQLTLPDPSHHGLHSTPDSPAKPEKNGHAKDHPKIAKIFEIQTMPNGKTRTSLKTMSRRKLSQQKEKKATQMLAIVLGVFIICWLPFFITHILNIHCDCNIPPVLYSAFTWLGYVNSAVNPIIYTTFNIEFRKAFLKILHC
SMILES,inhibition (D(1A) dopamine receptor [1]) [%],Ki (D(2) dopamine receptor [2]) [nM],Ki [3] [nM],inhibition [4] [%],inhibition (D(2) dopamine receptor [5]) [%],Ki (D(1A) dopamine receptor [6]) [nM],Ki [7] [nM]
CCCN1CCc2cccc3c2[C@H]1Cc1cccc(N)c1-3,57.1,352,276,49.4,,,
CCCN1CCc2cccc3c2C1Cc1cccc(OC(=O)CCCCC2CCSS2)c1-3 (racemic),62.7,,137,14.7,55.2,,
CCCCNC(=O)Oc1cccc2c1-c1cccc3c1[C@@H](C2)N(CCC)CC3,53.6,,89,34.9,40.9,,
CCCN1CCc2cccc3c2[C@H]1Cc1cccc(OC(=O)NCc2ccccc2)c1-3,,2200,90,76.6,,2400,
CCCC(=O)Nc1cccc2c1-c1cccc3c1[C@@H](C2)N(CCC)CC3,16.1,,380,16.6,13.5,,
CCCN1CCc2cccc3c2C1Cc1cccc(CNC(=O)CCCCC2CCSS2)c1-3 (racemic),32.4,,,,9.6,,
CCCN1CCc2cccc3c2[C@H]1Cc1cccc(OC(=O)CCCC[C@H]2CCSS2)c1-3,64.8,342,35,,,,
CCCN1CCc2cccc3c2C1Cc1cccc(O)c1-3 (racemic),55.9,,66,14.1,,,
CCCN1CCc2cccc3c2[C@H]1Cc1cccc(OC(=O)NCC)c1-3,54.6,,94,14.5,44.3,,
CCCN1CCc2cccc3c2[C@H]1Cc1cccc(OC(=O)CCCC[C@@H]2CCSS2)c1-3,69.6,296,45,,,,
CCCNC(=O)Oc1cccc2c1-c1cccc3c1C(C2)N(CCC)CC3 (racemic),26.2,,258,30.1,52.7,,
CCCN1CCc2cccc3c2[C@H]1Cc1cccc(O)c1-3,63.2,,,63,,,
CCCN1CCc2cccc3c2[C@H]1Cc1cccc(NC(=O)CCCCC2CCSS2)c1-3 (stereo not given in full),27.2,,249,36.9,33.1,,
CCCN1CCc2cccc3c2C1Cc1cccc(CNC(=S)CCCCC2CCSS2)c1-3 (racemic),11.4,,,,3.1,,
CCCN1CCc2cccc3c2C1Cc1cccc(OC(=O)NCc2ccccc2)c1-3 (racemic),,4300,259,,,4200,2000
CCCNC(=O)Oc1cccc2c1-c1cccc3c1[C@@H](C2)N(CCC)CC3,56.3,,87,16,50.9,,
CCCN1CCc2cccc3c2[C@H]1Cc1cccc(OC(=O)NC(C)(C)C)c1-3,70.2,871,96,29.2,,,
CCCN1CCc2cccc3c2C1Cc1cccc(OC(=O)Nc2cccc4ccccc24)c1-3 (stereo not given),48,2000,124,21.7,,,
CCCN1CCc2cccc3c2C1Cc1cccc(OC(=O)NC(C)(C)C)c1-3 (racemic),44.2,2800,217,20,,,
CCCN1CCc2cccc3c2C1Cc1cccc(CNC(=O)NCC)c1-3 (racemic),35.4,,,,15.7,,
CCCN1CCc2cccc3c2C1Cc1cccc(-c2noc(CCCCC4CCSS4)n2)c1-3 (racemic),57,,,,19.5,,
CCCCNC(=O)Oc1cccc2c1-c1cccc3c1C(C2)N(CCC)CC3 (racemic),36.5,,385,37.4,53.2,,
CCCN1CCc2cccc3c2C1Cc1cccc(OC(=O)CSc2ccccc2)c1-3 (racemic),67.1,851,,,,,
CCCC(=O)Oc1cccc2c1-c1cccc3c1[C@@H](C2)N(CCC)CC3,63.2,55.5,11.9,68,,,
CCCN1CCc2cccc3c2C1Cc1cccc(OC(=O)NCC)c1-3 (racemic),46.1,,218,19.8,56.7,,

# Source: ChEMBL document CHEMBL1806354 (J Med Chem, 2011)
